Key:
[1] = test system: Ppm1a knockout (Ppm1a−/−) mice with bone defect; format: in vivo, mouse
[2] = test system: osteoblasts; assay: alkaline phosphatase staining, osteogenic differentiation of osteoblasts; format: cell-based, mouse; conditions: in vitro; 2.5 μM, 5.0 μM, 10 μM
[3] = test system: primary osteoblasts; assay: cell counting kit-8 (CCK-8) assay, viability of primary osteoblasts; format: cell-based, mouse
[4] = test system: mouse model with femoral distal bone defect; assay: bone defect repair in mouse model with femoral distal bone defect; format: in vivo
[5] = test system: OVX model mice; assay: ovariectomy (OVX) model mouse, estrogen-deficient osteoporosis; format: in vivo; conditions: for number of TRAP-positive cells: distal femur sections
[6] = test system: livers, hearts, kidneys, and spleens of OVX model mice; assay: biosafety evaluation, HE staining of organs in OVX model mice; format: in vivo, mouse; conditions: low-dose and high-dose, 8 weeks of intervention
Excerpt: The livers, hearts, kidneys, and spleens of the mice in the OVX model post-intervention with miltefosine for 8 weeks are collected, and the tissue morphology of these organs is observed through hematoxylin and eosin (HE) staining.

[7] = test system: primary osteoblasts; assay: RT-qPCR of osteogenic genes Sp7, Bglap, Alpl in primary osteoblasts; conditions: RT-PCR
Method: After euthanizing 3-5-day-old mouse with CO2, the euthanized mouse is soaked in 70% alcohol for disinfection for 15 minutes. The disinfected mouse is then carefully skinned from a top of the skull, and the skull tissue blocks are placed in an a-modified eagle medium (α-MEM) digestion culture medium containing 1 mg/mL collagenase-A and 1% penicillin/streptomycin. The skull tissue blocks are digested at 37° C. for 6 hours, with the cell tissue blocks being pipetted and blown every hour. After the digestion of the tissue blocks is complete to obtain a mixture, the mixture is filtered through a 70-μm cell strainer, centrifuged at 1000 revolutions per minute (rpm) for 5 minutes, and then resuspended in α-MEM culture medium to obtain mixed cells. The mixed cells are inoculated in a well plate to obtain osteoblasts, and the osteoblasts are cultured in complete α-MEM medium containing 10% fetal bovine serum. When a cell adhesion convergence degree of the osteoblasts reaches 60-70%, the osteoblasts are induced for osteogenic differentiation with an osteogenic culture medium containing ascorbic acid (50 g/mL) and β-glycerophosphate (10 millimoles per liter abbreviated as mM) for 7 days before the cells are collected for the next step of the experiment.
1.1.7 Extraction of Messenger Ribonucleic Acid (mRNA) of Cells and Detection of Reverse Transcription Quantitative Polymerase Chain Reaction (RT-qPCR)
TRIzol reagent (i.e., TRI reagent®) is used to harvest and extract total RNA from the osteoblast cultures. The mRNA is then reverse transcribed into complementary deoxyribonucleic acid (DNA) using the TaqMan reverse transcription kit (Biomake). After that, a real-time quantitative polymerase chain reaction (RT-qPCR) is conducted with the SYBR Premix Ex Taq™ II.

[8] = CT analysis, one week after operation
[9] = 8 weeks post-OVX, vs control group

CCCCCCCCCCCCCCCCOP([O])(=O)OCC[N+](C)(C)C (stereo not drawn) [miltefosine, hexadecylphosphocholine]
osteogenic effects in bone defect repair (Micro-CT) [1]: could not exert the above osteogenic effects | osteogenic differentiation capacity of osteoblasts (alkaline phosphatase staining) [2]: significantly enhance | effect on the viability of the primary osteoblasts ([3]; 0.5 μM to 20 μM in vitro): no significant effect | cell death of the primary osteoblasts ([3]; 50 μM): approximately 50% | BMD in the bone defect repair area [4, 8]: increase | BV/TV in the bone defect repair area [4, 8]: increase | trabecular number (Tb.N) in the bone defect repair area [4, 8]: increase | expression level of osteocalcin (OCN) in the bone defect repair area ([4]; immunohistochemistry, vs control group): significantly increased | bone repair (μ-CT scans of femur) ([4]; one week after model creation): effectively accelerate bone repair | area of new bone in the bone defect area (SO/FG staining) ([4]; vs control (vehicle) group, one week after operation): significantly larger | BMD at the distal femur ([5]; 8 weeks post-OVX): significantly increase | Conn.Dn ([5]; 8 weeks post-OVX): improve | SMI of the bone tissue ([5]; 8 weeks post-OVX): improve | bone loss at the distal femur (histomorphometric analysis, ABH/OG, trabecular bone area fraction) ([5]; 8 weeks post-OVX): reduce bone loss | number of osteoblasts on the trabecular bone surface ([5]; 8 weeks post-OVX): increase | BV/TV of trabecular bone [5, 9]: significantly increased | Tb.N [5, 9]: significantly increased | Tb.Sp [5, 9]: markedly reduced | Tb.Th [5, 9]: significantly increased | expression level of mature osteoclast marker cathepsin K (CTSK) ([5]; control group vs treated groups): no significant difference | bone formation by ALP immunohistochemical staining ([5]; distal femur, 8 weeks post-OVX): significantly promote the bone formation | bone formation by immunofluorescence staining for OCN ([5]; distal femur, 8 weeks post-OVX): significantly promote the bone formation | formation of adipocytes (Fabp4 immunohistochemical staining) ([5]; distal femur, 8 weeks post-OVX): no obvious effect | number of TRAP-positive cells ([5]; high-dose): slightly reduces | bone loss at the distal metaphysis of the femur (micro-CT) ([5]; low-dose and high-dose groups, 8 weeks post-OVX): significantly less | number of TRAP-positive cells ([5]; low-dose): does not affect | tissue morphology of livers, hearts, kidneys, and spleens (HE staining) [6]: no obvious lesions or pathological changes | expression of osteogenic gene Alpl (mRNA) [7]: upregulate | expression of osteogenic gene Bglap (mRNA) [7]: upregulate | expression of osteogenic gene Sp7 (mRNA) [7]: upregulate

Reference: patent US20250090558A1, “APPLICATION OF M[…] PROMOTING BONE FORMATION AND PREVENTING-TREATING OSTEOPOROSIS” (The First Affiliated Hospital of Zhejiang Chinese Medical …, priority 2023, published 2025)
